# Key:
# Format in all cases: cell-based
# fresh morning saliva = experiment: In-vitro test for reducing bad breath (liquid medium inoculated with fresh morning saliva, smelt by a test panel); settings: for formation of bad breath / smell after incubation: 0.1%
# Protocol: This test is based on the work of Goldberg and Rosenberg (Production of Oral Malodor in an in vitro System, S. Goldberg and M. Rosenberg, pp. 143-150, in: Bad Breath—A multidisciplinary Approach, Eds: D. van Steenberghe, M. Rosenberg, Leuven University Press, 1996) and was adapted for the purposes of better reproducibility.
# A sterile liquid medium that is inoculated with fresh morning saliva is incubated for a few days at 37° C. and then smelt by a test panel.
# An intensive typical smell of bad breath had formed. Non-inoculated controls only have a weak to moderate smell of bad breath.
# Triclosan® in a concentration of 0.05% was added as control for the tests.
# The minimum effective concentrations of various compounds of the Formula 1 or of the Formula 1A at which no smell could be detected are shown hereinafter: […]
# Escherichia coli = experiment: Effect against germs not connected with bad breath; settings: 1,000 ppm
# Aspergillus niger = experiment: Effect against germs not connected with bad breath; settings: 1,000 ppm
# Candida albicans = experiment: Effect against germs not connected with bad breath; settings: 1,000 ppm
# Staphylococcus aureus = experiment: Minimal inhibiting concentration, series dilution test; settings: bactericide
# Protocol: (§1) The minimal inhibiting concentration (MIC) was determined by way of example for 2-(benzoylamino) benzoic acid (Compound 27) in a series dilution test against various germs found in the mouth.
# Veillonella parvula = experiment: as above; settings: bactericide
# Protocol: as §1
# Fusobacterium nucleatum = experiment: as above
# Protocol: as §1
# Prevotella intermedia = experiment: as above
# Protocol: as §1
# [1] = medium inoculated with fresh morning saliva, incubated a few days at 37° C., test panel
Structure (SMILES),minimum effective concentration at which no smell could be detected (fresh morning saliva; [1]) [%],further results
"O=C(/C=C/c1ccc(O)c(O)c1)Nc1ccccc1C(=O)O [Compound 2, 2-{[(2E)-3-(3,4-dihydroxyphenyl)prop-2-enoyl]amino}benzoic acid]",0.005,
"O=C(/C=C/c1ccc(O)c(O)c1)Nc1ccc(O)cc1C(=O)O [Compound 3, 5-hydroxy-2-{[(2E)-3-(3,4-dihydroxyphenyl)prop-2-enoyl]amino}benzoic acid]",0.0025,
"COc1cc(/C=C/C(=O)Nc2ccc(O)cc2C(=O)O)ccc1O [Compound 4, 5-hydroxy-2-{[(2E)-3-(4-hydroxy-3-methoxyphenyl)prop-2-enoyl]amino}benzoic acid]",0.01,minimum effective concentration at which no smell could be detected (fresh morning saliva; same value given in ppm): (=100 ppm)
"O=C(/C=C/c1ccc(O)cc1)Nc1ccc(O)cc1C(=O)O [Compound 7, 5-hydroxy-2-{[(2E)-3-(4-hydroxyphenyl)prop-2-enoyl]amino}benzoic acid]",0.005,minimum effective concentration at which no smell could be detected (fresh morning saliva; same value given in ppm): (=50 ppm)
"O=C(CCc1ccc(O)cc1)Nc1ccccc1C(=O)O [Compound 8, 2-{[3-(4-hydroxyphenyl)propanoyl]amino}benzoic acid]",0.005,
"COc1cc(/C=C/C(=O)Nc2ccccc2C(=O)O)ccc1O [Compound 9, 2-{[(2E)-3-(4-hydroxy-3-methoxyphenyl)prop-2-enoyl]amino}benzoic acid]",0.005,
"O=C(/C=C/c1ccc(O)cc1)Nc1ccccc1C(=O)O [Compound 10, 2-{[(2E)-3-(4-hydroxyphenyl)prop-2-enoyl]amino}benzoic acid]",0.0025,effect against the germ (Escherichia coli): did not have any effect; effect against the germ (Aspergillus niger): did not have any effect; effect against the germ (Candida albicans): did not have any effect; minimum effective concentration at which no smell could be detected (fresh morning saliva; same value given in ppm): (=25 ppm)
"O=C(/C=C/c1ccccc1)Nc1ccc(O)cc1C(=O)O [Compound 12, 5-Hydroxy-2-{[(2E)-3-phenylprop-2-enoyl]amino}benzoic acid]",0.0025,
"COc1ccc(/C=C/C(=O)Nc2ccc(O)cc2C(=O)O)cc1OC [Compound 13, 5-Hydroxy-2-{[(2E)-3-(3,4-dimethoxyphenyl)prop-2-enoyl]amino}benzoic acid]",0.01,
"O=C(Nc1ccccc1C(=O)O)c1ccc(O)c(O)c1 [Compound 20, 2-[(3,4-dihydroxybenzoyl)amino]benzoic acid]",0.005,
"COc1ccc(C(=O)Nc2ccccc2C(=O)O)cc1O [Compound 23, 2-[(3-hydroxy-4-methoxybenzoyl)amino]benzoic acid]",0.0025,
"O=C(Nc1ccccc1C(=O)O)c1ccc(O)cc1 [Compound 24, 2-[(4-hydroxybenzoyl)amino]benzoic acid]",0.001,
"COc1cc(C(=O)Nc2ccccc2C(=O)O)ccc1O [Compound 25, 2-[(4-hydroxy-3-methoxybenzoyl)amino]benzoic acid]",0.001,
"O=C(Nc1ccccc1C(=O)O)c1ccc(O)cc1O [Compound 26, 2-[(2,4-dihydroxybenzoyl)amino]benzoic acid]",0.0025,
"O=C(Nc1ccccc1C(=O)O)c1ccccc1 [Compound 27, 2-(benzoylamino)-benzoic acid]",0.0025,"MIC (Staphylococcus aureus): 500 µg/mL; MIC (Veillonella parvula): 250 µg/mL; MIC (Fusobacterium nucleatum; bactericide): 1000 µg/mL; MIC (Fusobacterium nucleatum; bacteriostatic): 500 µg/mL; MIC (Prevotella intermedia; bactericide): 1000 µg/mL; MIC (Prevotella intermedia; bacteriostatic): 500 µg/mL; smell after incubation (fresh morning saliva; 0.001 wt. %): a non unpleasant smell could be detected, which did not bear any resemblance to bad breath; smell after incubation (fresh morning saliva; 0.0025 wt. %): no smell"
"O=C(Nc1ccccc1C(=O)O)c1cccc(O)c1 [Compound 28, 2-[(3-hydroxybenozyl)amino]benzoic acid]",0.0005,minimum effective concentration at which no smell could be detected (fresh morning saliva; same value given in ppm): (=5 ppm)
"O=C(Nc1ccccc1C(=O)O)c1ccccc1O [Compound 29, 2-[(2-hydroxybenzoyl)amino]benzoic acid]",0.0025,
"O=C(Nc1cc(O)ccc1C(=O)O)c1ccc(O)cc1 [Compound 75, 4-hydroxy-2-[(4-hydroxybenzoyl]amino}benzoic acid]",0.01,
"O=C(Nc1ccccc1)c1ccccc1O [Compound 100, Salicylanilide]",0.0025,
"COc1ccc(/C=C/C(=O)Nc2ccccc2C(=O)O)cc1 [Compound 101, 2-{[(2E)-3-(4-methoxyphenyl)prop-2-enoyl]amino}benzoic acid]",0.0025,
"O=C(/C=C/c1ccccc1)Nc1ccccc1C(=O)O [Compound 102, 2-{[(2E)-3-phenylprop-2-enoyl]amino}benzoic acid]",0.001,minimum effective concentration at which no smell could be detected (fresh morning saliva; same value given in ppm): (=10 ppm)
"Oc1cc(Cl)ccc1Oc1ccc(Cl)cc1Cl [Triclosan, reference compound]",,"smell after incubation (fresh morning saliva; 0.05%, control): the same smell as the non-inoculated flasks"
"C=CCc1ccc(O)c(OC)c1 [eugenol, reference compound]",,formation of bad breath / smell after incubation (fresh morning saliva): suppressed the formation of bad breath
"Cc1ccc(C(C)C)c(O)c1 [thymol, reference compound]",,formation of bad breath / smell after incubation (fresh morning saliva): suppressed the formation of bad breath

# Reference: patent publication US20080008660A1, “Antimicrobially active compounds for treating bad breath” (Symrise GmbH & Co. KG, priority 2006, published 2008)
